The subject of this test is CEM cells HIV-1 protection, formazan growth assay. The experiment in a line: NCI AIDS Antiviral Assay. The note with it: for IC50: measured here: growth of uninfected CEM cells. In short, it runs like this:
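Five concentrations of each compound were applied to infected and uninfected human CEM cells. Protection from HIV-1 was judged from growth measured with a soluble formazan assay.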

The results in this text go back to PubChem BioAssay AID179 (DTP/NCI, 2004).

One may read the EC50 as the concentration needed to bring the measured effect to its halfway point. In general, IC50 refers to the concentration that inhibits the measured activity by half. Low readings indicate higher potency, high ones lower potency.

Values joined by “and” are separate entries in the source; they are usually repeats but may differ in a detail not shown here. Equal values may be shown once. Active and inactive are the calls of the source.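 How the source made its calls: active means compounds giving half or more protection of infected cells from virus-caused growth loss, again on retest; inactive means the rest.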 *1 amine or outer side, *2 acyl side, *3 side chain or, on linkers, in order; H or OH if unused. Where a SMILES comes first, the peptide text is derived from it. Bridges are numbered along the chain shown (N, C = ends). [ ]: non-standard residue; d: D form. The star is where a group is joined. ξ: configuration not given here. γ4hArg(2R,3R-(OH)2) = N=C(N)NCCC[C@H](N[*:1])[C@@H](O)[C@@H](O)C(=O)[*:2]; Gln(3S,4R-Me2) = C[C@H]([C@H](N)C(=O)O)[C@@H](C)C(N)=O; ξPhe(4-NO2) = NC(Cc1ccc([N+](=O)[O-])cc1)C(=O)O; X5 = CC(C)C[C@H](C)[C@@H](O)[C@@H](C)C(=O)*; X6 = COC(c1ccc(O)cc1)C(N[*:1])C(=O)[*:2]; NMeQ = CN[C@@H](CCC(N)=O)C(=O)O; Thr(3ξ) = CC(O)[C@H](N)C(=O)O; NMeA = CN[C@@H](C)C(=O)O; Cbz = O=C(OCc1ccccc1)*; Boc = CC(C)(C)OC(=O)*; OBn = c1ccc(CO*)cc1; Bn = c1ccc(C*)cc1

As to `COC(=O)CC[C@@H](C)C1CCC2[C@@H]3CC[C@@H]4CC(COS(=O)(=O)c5ccc(C)cc5)CC[C@]4(C)C3CC[C@@]21C` (some centres not stated), the EC50 was > 8.32 µM and the IC50 is > 8.32 µM.
For the compound `COC1C=COC2(C)Oc3c(C)c(O)c4c(O)c(c(C5SCCS5)c(O)c4c3C2=O)NC(=O)/C(C)=C\C=CC(C)C(O)C(C)C(O)C(C)C(OC(C)=O)C1C` (configuration not stated), the EC50 was > 200 µM and the IC50 worked out at 0.646 µM.
For `O=C1/C(=C\c2cccc(Oc3ccccc3)c2)SC(c2ccccc2)N1Cc1ccccc1` (configuration not stated), the EC50 is > 20 µM and the IC50 is 1.29 µM.
`O=C1OC(c2ccccc2)=N/C1=C/c1ccc2c(c1)OCO2`: the EC50 was > 24.5 µM and the IC50 was > 24.5 µM.
For the compound `COc1ccc2c3c([nH]c2c1[N+](=O)[O-])C(C)N(Cc1ccccc1)CC3` (configuration not stated), the outcome was inactive.
As for `COc1cc(Nc2cnc3ccc(N)cc3n2)cc(OC)c1OC`, the EC50 is > 550 µM.
Consider `CCOC(=O)CON=c1c2ccccc2ccc2ccccc12`, for which the EC50 was > 200 µM and the half-maximal inhibitory concentration (IC50) is > 200 µM.
Turning to `CC(C)N=C=NC(C)C`, the EC50 was > 380 µM and the IC50 is > 380 µM.
Consider `C[C@]12Cc3conc3C(O)=C1CC[C@@H]1C2CC[C@@]2(C)C1CC[C@@H]2O` (some centres not stated), for which the EC50 was > 204 µM and the IC50 amounted to 25.7 µM.
As to `CC(C)(C)OC(=O)NC(Cc1ccc([N+](=O)[O-])cc1)C(=O)NCC(=O)OCc1ccccc1` (configuration not stated) (Boc-[ξPhe(4-NO2)]-Gly-OBn), the EC50 is > 200 µM and the IC50 is 33.1 µM.
Regarding `COC(c1ccc(O)cc1)C1NC(=O)[C@H](CCC(N)=O)N(C)C(=O)[C@H](CC(C)C)NC(=O)[C@@H](CCCN=C(N)N)NC(=O)[C@H](C(C)O)NC(=O)[C@@H](NC(=O)[C@@H](NC(=O)[C@H](O)[C@H](O)[C@H](CCCN=C(N)N)NC(=O)[C@H](C)NC(=O)[C@H](C)[C@H](O)[C@@H](C)CC(C)C)[C@@H](C)[C@@H](C)C(N)=O)[C@@H](C)OC(=O)[C@H](C)N(C)C1=O` (stereo partly drawn) (X5-A[γ4hArg(2R,3R-(OH)2)][Gln(3S,4R-Me2)]T[Thr(3ξ)][dR]L[NMeQ][X6][NMeA]; ester 4-C), the EC50 is 0.0933 µM and the IC50 was determined as 0.794 µM.
Take `CC(C#N)Nc1ccc(Oc2ccc(C(C)(C)c3ccc(Oc4ccc(NC(C)C#N)cc4)cc3)cc2)cc1` (configuration not stated): the EC50 was > 200 µM and the IC50 was 13.5 µM.
Regarding `Cc1nc2cc([N+](=O)[O-])ccc2c(NCCCN(C)C)c1C`, the EC50 was > 200 µM and the IC50 was 3.55 µM.
Regarding `COc1ccc(/C=C2\N=C(c3ccccc3)OC2=O)c(OCc2ccccc2)c1`, the EC50 is > 9.77 µM and the IC50 is > 9.77 µM.
On to `Cc1ccc(C(=O)Nc2ccc(CP(=O)(O)O)cc2)cc1NC(=O)c1cccc(NC(=O)Nc2cccc(C(=O)Nc3cc(C(=O)Nc4ccc(CP(=O)(O)O)cc4)ccc3C)c2)c1`, for which the EC50 is 16.6 µM and the IC50 amounted to 50.1 µM.
Regarding `CC1(O)/C(=N/O)CC2CC1C2(C)C` (configuration not stated), the EC50 was > 1350 µM and the IC50 was > 1350 µM.
Consider `O=C(Nc1ccc(Sc2ccc(N=Nc3c(O)c(S(=O)(=O)O)cc4cc(S(=O)(=O)O)ccc34)cc2)cc1)c1ccc(N=Nc2cc(S(=O)(=O)O)c3ccccc3c2O)cc1`, for which the result was inactive.
With `COC(=O)C(Cc1ccc(O)cc1)NC(=O)C(COCc1ccccc1)NC(=O)OCc1ccccc1` (configuration not stated) (Cbz-Ser(Bn)-Tyr-OMe; configuration not given here), the EC50 is > 200 µM and the IC50 turned out to be 30.2 µM.
Consider `CCCCCCCCCCCCOCC1(COCCCCCCCCCCCC)COC(c2ccc(N)cc2)OC1`, for which the EC50 is > 200 µM and the IC50 is > 200 µM.
Take `COP(=O)(CC(=O)C1OC(C)(C)OC1C(O)COCc1ccccc1)OC` (configuration not stated): the EC50 is > 324 µM and the 50% inhibitory concentration (IC50) was > 324 µM.
Consider `CCC12CCC3CCCCC3(OO1)[C@@H](OC)O2` (some centres not stated), for which the EC50 was > 51.3 µM and the IC50 was > 51.3 µM.
In the case of `c1ccc([P+](Cc2csnn2)(c2ccccc2)c2ccccc2)cc1`, the EC50 was > 331 µM and the IC50 was 174 µM.
As to `Cc1cc(O)c(C(C)C)cc1C1(c2cc(C(C)C)c(O)cc2C)OS(=O)(=O)c2ccccc21`, the outcome was inactive.
Consider `O=C1CC(=O)NC(=NN2C(=O)CSC2c2ccc(Cl)c(Cl)c2)N1` (configuration not stated), for which the EC50 was > 200 µM and the IC50 turned out to be 102 µM.
Take `Cc1ccc2c(c1)C(=O)C1(C2)Cc2c(C)cccc2C1=O` (configuration not stated): the EC50 is > 200 µM and the IC50 is > 200 µM.
As for `CCCN(CCC)C(=S)S`, the EC50 was > 200 µM and the IC50 is > 200 µM.
On to `C/C(CC(=O)Nc1ccc(Cl)c(Cl)c1)=N/NC(=O)C[n+]1ccccc1`, for which the EC50 is > 162 µM and the IC50 was > 162 µM.
In the case of `COc1cc2c(cc1OC)-c1cc3cc(OC)c(OC)cc3c(=O)n1CC2`, the EC50 is > 200 µM and the IC50 stood at 7.24 µM.
As to `O=C1OC(CC(=O)c2ccccc2Cl)C(Cl)=C1Cl` (configuration not stated), the EC50 is > 117 µM and the IC50 was 69.2 µM.
The corresponding values for `Clc1cccc(-c2sc(-c3cccs3)cc2Cc2cccs2)c1` are > 200 µM and 141 µM.
In the case of `C#CC(C)(C)Oc1ccc2c(=O)c(-c3ccccc3)coc2c1`, the EC50 is > 200 µM.
Regarding `COc1ccc(-c2nc(SC)n(C3OC(COC(C)=O)C(OC(C)=O)C(OC(C)=O)C3OC(C)=O)c(=O)c2C#N)cc1` (configuration not stated), the EC50 is > 200 µM; the IC50 is 41.7 µM and 46.8 µM.
Regarding `N#Cc1sc2nc3ccccc3n2c1N`, the EC50 was > 200 µM and the IC50 came to 28.8 µM.
In the case of `CNc1ncn(-c2c(C)cccc2C)c(=O)n1`, the EC50 is > 200 µM and the concentration for half-maximal inhibition (IC50) is > 200 µM.
Take `CC1(C)CC(=O)C2=C(C1)Nc1ccccc1NC2c1ccc([N+](=O)[O-])cc1` (configuration not stated): the EC50 was > 200 µM and the IC50 came out at 29.5 µM.
The corresponding values for `O=c1c(O)c(-c2cc(O)c(O)c(O)c2)oc2cc(O)ccc12` are > 832 µM and 11.7 µM.
With `CC(O)c1ccc2c(c1)C(O)C[C@H]1[C@](C)(CO)CCC[C@]21C` (some centres not stated), the EC50 was > 200 µM and the IC50 came to 141 µM.
Take `N[C@@H](CSSc1ccccc1C(=O)O)C(=O)O`: the EC50 was > 200 µM and the IC50 was > 200 µM.
Consider `CC1(C)CC(=O)C(/C=N/C(=S)NCc2ccccc2)=C(O)C1`, for which the EC50 was > 200 µM and the IC50 was > 200 µM.
Turning to `O=C1NC(=S)N/C1=C\c1ccccc1`, the EC50 is > 200 µM and the IC50 is 178 µM.
Take `Clc1ccc(SCCSCCCCCCCCCCSCCSc2ccc(Cl)cc2)cc1`: the EC50 is > 9.55 µM and the IC50 is > 9.55 µM.
As to `Nc1nc(Cl)nc2c1ncn2C1CCC(COP(=O)(O)OP(=O)(O)OP(=O)(O)O)O1` (configuration not stated), the outcome was active.
Turning to `Cc1ccc2c(c1)CNc1ccc(C)cc1CN2`, the result was inactive.
As for `CCOC(=O)c1cn(C)c2c1C(O)=C(C(=O)OC)CC(=O)N2`, the EC50 was > 234 µM and the IC50 is 178 µM.
For `CC(C)(C)CC(C)(C)c1ccc(O)c(SSc2cc(C(C)(C)CC(C)(C)C)ccc2O)c1` the same measures were > 200 µM and 25.7 µM.
The corresponding values for `CC(NC(=O)C(NC(=O)CNC(=O)OC(C)(C)C)C(C)C)C(=O)Oc1c(Cl)c(Cl)c(Cl)c(Cl)c1Cl` (configuration not stated) are > 200 µM and 29.5 µM.
Regarding `OCCN(CCO)c1nc(N2CCCCC2)c2nc(N(CCO)CCO)nc(N3CCCCC3)c2n1`, the result was inactive.
With `O=C(O)c1ccccc1/C=C1\Cc2cc3c(cc2C1=O)CCC3`, the EC50 is > 200 µM and the IC50 is > 200 µM.
Consider `COc1ccccc1OCC(COC(=O)Nc1ccc(C)cc1)OC(=O)Nc1ccc(C)cc1` (configuration not stated), for which the EC50 was > 77.6 µM and the IC50 was determined as 72.4 µM.
As for `OC(CC(O)(C(F)(F)Cl)C(F)(F)Cl)c1ccccc1` (configuration not stated), the EC50 is > 200 µM and the IC50 came to 44.7 µM.
As for `C=CCC12CCC(=O)[C@@]1(C)CC=C(O)C2=O` (some centres not stated), the result was inactive.
Turning to `CCO/C=N/C1=C(C#N)C(c2ccc(Cl)cc2)c2c(-c3ccccc3)nn(-c3ccccc3)c2O1` (configuration not stated), the EC50 was > 20 µM and the IC50 stood at 17 µM.
Consider `COC(=O)CC1(CNC(=O)OCc2ccccc2)OCCO1`, for which the EC50 is > 200 µM and the IC50 was > 200 µM.
Consider `CCN(CC)c1nnc(CCCCCCCCc2nnc(N(CC)CC)o2)o1`, for which the EC50 was > 200 µM and the IC50 is > 200 µM.
In the case of `COc1cc2c(c(OC)c1OC)C(=O)[C@@H](O)[C@H]2NC(=O)CCCCl`, the EC50 is > 200 µM and the IC50 is > 200 µM.
In the case of `CCCCCCCCCCCCCCCCCC(=O)OCC(O)CO` (configuration not stated), the EC50 is > 2.09 µM and the IC50 was > 2.09 µM.
For `Cc1ccc(/C=C2/N=C([Se])N(C)C2=O)cc1`, the EC50 is > 18.6 µM and the IC50 was > 18.6 µM.
Consider `CC(=O)N(O)c1ccccc1-c1ccccc1`, for which the EC50 was > 200 µM and the IC50 was found to be 102 µM.
As to `C=C(CC[C@@H](O)C(Cl)CO)[Si](C)(C)C` (some centres not stated), the EC50 is > 110 µM and the IC50 is > 110 µM.
Regarding `CN(C)CCCNC(=O)CNC(=O)c1cc(NC(=O)c2cc(NC(=O)c3cc(NC(=O)CCNC(=O)c4cc(NC(=O)c5cc(NC(=O)c6nccn6C)cn5C)cn4C)cn3C)cn2C)cn1C`, the result was inactive.
In the case of `O=C(Nc1ccc(Cl)cc1)c1cc(S(=O)(=O)NC2=NC(c3ccccc3)c3cc(Cl)ccc3N2)c(SSc2cc(Cl)c(C(=O)Nc3ccc(Cl)cc3)cc2S(=O)(=O)NC2=NC(c3ccccc3)c3cc(Cl)ccc3N2)cc1Cl` (configuration not stated), the EC50 is > 200 µM and the IC50 was > 200 µM.
Turning to `CN(C)C=Nc1nncc2n[nH]nc12`, the EC50 was > 200 µM and the IC50 was > 200 µM.
Regarding `COP(=O)(Cc1ccccc1)Cc1ccccc1`, the EC50 was > 200 µM and the IC50 is > 200 µM.
On to `O=C(O)CC1CCN(C(=O)c2ccccc2)C(Cc2c[nH]c3ccccc23)C1O` (configuration not stated), for which the EC50 is > 126 µM and the concentration for half-maximal inhibition (IC50) is > 126 µM.
As for `CN(C)CCC(=O)N1CCc2c([nH]c3ccccc23)C1c1cccnc1` (configuration not stated), the EC50 is > 372 µM and the IC50 is > 372 µM.
Consider `O=C(O)CCC(NC(=O)c1ccc(CNc2nc3ccccc3nc2C(=O)O)cc1)C(=O)O` (configuration not stated), for which the EC50 was > 200 µM and the IC50 was > 200 µM.
